From the NIST ThermoML archive (doi:10.1021/acs.jced.5b00181)
± gives the expanded uncertainty stated by the source.

Experiments:
[1] = 101 kPa, Liquid; for viscosity: Falling or rolling sphere viscometry; for speed of sound: Frequency=3 MHz, Sing-around technique in a fixed-path interferometer; for mass density: Vibrating tube method
[2] = xn = mol fraction of the nth substance listed; settings: 101 kPa, Liquid, x2 = 0; for viscosity: Falling or rolling sphere viscometry; for speed of sound: Frequency=3 MHz, Sing-around technique in a fixed-path interferometer; for mass density: Vibrating tube method

SMILES	viscosity ([2]; 278.15 K) [mPa·s]	speed of sound ([2]; 278.15 K) [m/s]	mass density ([2]; 278.15 K) [kg/m3]	viscosity ([2]; 298.15 K) [mPa·s]	speed of sound ([2]; 298.15 K) [m/s]	mass density ([2]; 298.15 K) [kg/m3]	viscosity ([2]; 318.15 K) [mPa·s]	speed of sound ([2]; 318.15 K) [m/s]	mass density ([2]; 318.15 K) [kg/m3]	viscosity ([2]; 338.15 K) [mPa·s]	speed of sound ([2]; 338.15 K) [m/s]	mass density ([2]; 338.15 K) [kg/m3]	further results
CCCO [propan-1-ol]	–	–	–	–	–	–	–	–	–	–	–	–	viscosity ([1]; 278.15 K): 3.191 ± 0.072 mPa·s; speed of sound ([1]; 278.15 K): 1275.5 ± 0.82 m/s; mass density ([1]; 278.15 K): 815.46 ± 2 kg/m3; viscosity ([1]; 298.15 K): 1.936 ± 0.07 mPa·s; speed of sound ([1]; 298.15 K): 1205.3 ± 0.8 m/s; mass density ([1]; 298.15 K): 799.55 ± 2 kg/m3; viscosity ([1]; 318.15 K): 1.242 ± 0.069 mPa·s; speed of sound ([1]; 318.15 K): 1137.5 ± 0.78 m/s; mass density ([1]; 318.15 K): 783.18 ± 2 kg/m3; viscosity ([1]; 338.15 K): 0.836 ± 0.068 mPa·s; speed of sound ([1]; 338.15 K): 1070.8 ± 0.76 m/s; mass density ([1]; 338.15 K): 765.96 ± 2 kg/m3
CCCO [propan-1-ol] + CCCCCC[n+]1ccn(C)c1.O=S(=O)([N-]S(=O)(=O)C(F)(F)F)C(F)(F)F	3.191 ± 0.072	1275.5 ± 0.82	815.46 ± 2	1.936 ± 0.07	1205.3 ± 0.8	799.55 ± 2	1.242 ± 0.069	1137.5 ± 0.78	783.18 ± 2	0.836 ± 0.068	1070.8 ± 0.76	765.96 ± 2	–
CCCO [propan-1-ol] + CCCC[n+]1ccn(C)c1.O=S(=O)([N-]S(=O)(=O)C(F)(F)F)C(F)(F)F	3.191 ± 0.072	1275.5 ± 0.82	815.46 ± 2	1.936 ± 0.07	1205.3 ± 0.8	799.55 ± 2	1.242 ± 0.069	1137.5 ± 0.78	783.18 ± 2	0.836 ± 0.068	1070.8 ± 0.76	765.96 ± 2	–
CCCO [propan-1-ol] + CCn1cc[n+](C)c1.O=S(=O)([N-]S(=O)(=O)C(F)(F)F)C(F)(F)F	3.191 ± 0.072	1275.5 ± 0.82	815.46 ± 2	1.936 ± 0.07	1205.3 ± 0.8	799.55 ± 2	1.242 ± 0.069	1137.5 ± 0.78	783.18 ± 2	0.836 ± 0.068	1070.8 ± 0.76	765.96 ± 2	–
